Consider two compounds from patent publication US12403079B2, “Ingredient in sunscreen compositions” (MAGIC BLUE, LLC, priority 2019, dated 2025).

Data set [1] deals with primary human skin cells (skin fibroblast cells or primary keratinocytes). The experiment in a line: in vitro 2D skin model, cell proliferation. The data set is classed as cell-based. The following applies: after 13 days; for cell proliferation: 100 nM and 1 μM, relative to control treatment. The text has this: Methylene Blue: [7-(dimethylamino) phenthiazin-3-ylldene]-dImethylazinium chloride, or more simply as methylthloninium chloride. Also included are all hydrates, particularly, the hydrate or trihydrate of Methylene Blue as well as all dermatologically acceptable salts thereof, such as the chloride salt. All forms of Methylene Blue are also abbreviated herein as MB and are to be understood as such. about: as used herein means±10%. […] Examples of conventional sunscreen excipients or adjuvants, include, for example, xanthan gums, corn starch, film-forming polymers and/or copolymers, glycerin, emulsifiers, moisturizing agents and cosmetic ingredients. Further examples of conventional sunscreen composition excipients or adjuvants are described in U.S. Pat. Nos. 9,149,664; 8,128,913; 9,050,475 and 6,800,274, all of which are incorporated herein by reference in the entirety. The present invention specifically avoids the inclusion of Oxybenzone and/or Octinoxate in the aforementioned U.S. patents which are used as UVA and/or UVB absorbers, and uses instead, Methylene Blue or any of the hydrates or dermatologically-acceptable salts thereof. Further, it is explicitly contemplated that conventional inorganic compounds, such as zinc oxide and/or titanium oxide, for example, may be used in formulating the sunscreen composition of the present invention. Also, polymers and/or copolymers that are conventionally used as sunscreen stabilizer emollients, such as polyester-8, may also be used in the present sunscreen formulations. Dermatologically-acceptable salts of MB: includes all salts recognized as safe for application to human skin, but generally, the chloride and/or hydrochloride salts are preferred. In vitro 2D skin test: This test is described in by Xiong, et al. in Scientific Reports 7, Article number: 2475 (2017), using primary human skin cells (skin fibroblast cells or primary keratinocytes). Sunscreen agents excluded from the present invention: the conventional sunscreen compounds Oxybenzone and Octinoxate are explicitly excluded from this invention. However, other conventional FDA-approved UVA and UVB absorbers may be used in combination with MB, its hydrates or salts in the present invention. SPF: means a “sun protection factor” defined at 21 USC 352.1 et seq. using the term MED, which in turn means Minimal Erythema Dose, which is defined as the quantity of erythema-effective energy (expressed in Joules per square meter) required to produce the first perceptible redness reaction with clearly defined borders. […]

For data set [2] the following is noted: scale of 1-10 (with 10 being the worst); cited from earlier work.
Data set [3] concerns primary human skin cells (skin fibroblast cells or primary keratinocytes). The experiment in a line: in vitro 2D skin model, cellular ROS levels by MitoSOX. The note with it: 100 nM and 1 μM, 0.1% DMSO solvent control. The data set is classed as cell-based. The text has this:
Methylene Blue: [7-(dimethylamino) phenthiazin-3-ylldene]-dImethylazinium chloride, or more simply as methylthloninium chloride. Also included are all hydrates, particularly, the hydrate or trihydrate of Methylene Blue as well as all dermatologically acceptable salts thereof, such as the chloride salt. All forms of Methylene Blue are also abbreviated herein as MB and are to be understood as such. about: as used herein means±10%. […] Examples of conventional sunscreen excipients or adjuvants, include, for example, xanthan gums, corn starch, film-forming polymers and/or copolymers, glycerin, emulsifiers, moisturizing agents and cosmetic ingredients. Further examples of conventional sunscreen composition excipients or adjuvants are described in U.S. Pat. Nos. 9,149,664; 8,128,913; 9,050,475 and 6,800,274, all of which are incorporated herein by reference in the entirety. […] SPF: means a “sun protection factor” defined at 21 USC 352.1 et seq. using the term MED, which in turn means Minimal Erythema Dose, which is defined as the quantity of erythema-effective energy (expressed in Joules per square meter) required to produce the first perceptible redness reaction with clearly defined borders. […]

In data set [4] the test system is human skin fibroblasts. The experiment in a line: recovery of MB-pretreated skin fibroblasts after UVB radiation (cell viability, survival). It is filed as cell-based. The following applies: 100 nM pre-treatment for two weeks. The protocol: In this example, the protection ability of MB against UVB radiation was measured. […] Here, a preliminary study was conducted in which human skin fibroblasts were pre-treated with MB at 100 nM concentration for two weeks and then exposed to 0, 5, 10 and 20 seconds of UVB radiation at 1100 mW/cm^2. In this preliminary study, both groups, i.e., MB-exposed skin cells and the control group, were exposed to the same amount of UVB radiation.

Data set [5] in a line: spectrophotometric UV absorption of dilute solutions. The following applies: 1 mM, MB versus BP-3. The data set is classed as physicochemical. How it is done:
In this example, the absorption characteristics based on spectrophotometric analysis of various dilute solutions of each of MB and oxybenzone (BP-3) were measured and then compared. The solution concentrations for each of MB and BP-3 were 100 μM and 1 mM.

For data set [6], the system named is human skin fibroblasts. The data set is described as follows: gamma H2AX levels (DNA double strand breakage) after UVB exposure. The note with it: 24 hours after UVB exposure, 100 nM pre-treatment; control group doubled. The data set is classed as cell-based. How it is done:
In this example, the protection ability of MB against UVB radiation was measured. […] Here, a preliminary study was conducted in which human skin fibroblasts were pre-treated with MB at 100 nM concentration for two weeks and then exposed to 0, 5, 10 and 20 seconds of UVB radiation at 1100 mW/cm^2.
Specifically, the histone H2AX Is phosphorylated to a gamma form (gamma H2AX) upon DNA double strand breakage and levels of gamma H2AX positively correlate with the presence of DNA breaks, which are commonly generated by UVB radiation.

The next data set relates to human keratinocyte cells. The data set is described as follows: cell death of keratinocytes after harsh UVB irradiation. The data set is classed as cell-based. The following applies: 5 days, versus control human keratinocyte cells.
The test system of another data set is Umbrella xenia. The experiment in a line: soft coral exposure in seawater for one week. The data set is classed as in vivo. The note with it: 0.5 and 1.0 μM in seawater. The text has this:
Samples of Umbrella xenia were placed in individual containers filled with seawater plus any one of MB or Oxybenzone or Octinoxate for one week. All of the containers were otherwise under the exact same temperature, lighting and water flow conditions. Separate containers were used for both “Control” (nothing added) and DMSO, also added in the same two concentrations specified below for MB, Oxybenzone and Octinoxate.

Take `COc1ccc(C(=O)c2ccccc2)c(O)c1` [BP-3]: the cell proliferation entry in data set [1] was “no changes in growth”. Also, the EWG hazard score in data set [2] is recorded as 8. Moreover, the “cellular reactive oxygen species (ROS) levels by MitoSOX” value in data set [3] is recorded as “elevated ROS levels”.

On to `CN(C)c1ccc2nc3ccc(=[N+](C)C)cc-3sc2c1` [MB, [7-(dimethylamino)phenthiazin-3-ylldene]-dImethylazinium chloride], for which, in data set [1], the cell proliferation entry is reported as “increase in cell proliferation”. For the same compound, the “cell number reading (FIG. 1)” value is recorded as “greatest cell number reading” in data set [1] (100 nM) and “somewhat less” in data set [1] (1 μM). For the same compound, the “recovery after UVB radiation (cell viability)” value in the data set on human skin fibroblasts [4] (UVB 0-20 seconds at 1100 mW/cm^2, five days recovery, versus control group) is reported as “significantly superior recovery”. Further, the “survival after high dosage-UVB radiation (imaging analysis)” value in the data set on human skin fibroblasts [4] (versus control samples) is given as “superior survival”. The “protection against UVB radiation (absorption)” value in data set [5] is listed as “superior protection against UVB radiation”. In addition, the “cellular reactive oxygen species (ROS) levels by MitoSOX” value in data set [3] is given as “dosage-dependent reduction in ROS”. The “levels of gamma H2AX” value in the data set with human skin fibroblasts [6] is “reduced levels of gamma H2AX”. Further, the “rescue of cell death after harsh UVB irradiation (FIG. 6)” value in the data set with human keratinocyte cells is recorded as “partially rescue cell death”. In the data set with Umbrella xenia, the “effects on soft corals” value is recorded as “No adverse effects”.
